From PMC9134403 (ACS Omega, 2022) come the findings set out here.

In this test the target is mushroom tyrosinase (Agaricus bisporus, UniProt C7FF04). Put plainly: Kinetic analysis. It counts as biochemical.

The structures appear in SMILES notation.

mushroom tyrosinase, sequence (C7FF04 1-392): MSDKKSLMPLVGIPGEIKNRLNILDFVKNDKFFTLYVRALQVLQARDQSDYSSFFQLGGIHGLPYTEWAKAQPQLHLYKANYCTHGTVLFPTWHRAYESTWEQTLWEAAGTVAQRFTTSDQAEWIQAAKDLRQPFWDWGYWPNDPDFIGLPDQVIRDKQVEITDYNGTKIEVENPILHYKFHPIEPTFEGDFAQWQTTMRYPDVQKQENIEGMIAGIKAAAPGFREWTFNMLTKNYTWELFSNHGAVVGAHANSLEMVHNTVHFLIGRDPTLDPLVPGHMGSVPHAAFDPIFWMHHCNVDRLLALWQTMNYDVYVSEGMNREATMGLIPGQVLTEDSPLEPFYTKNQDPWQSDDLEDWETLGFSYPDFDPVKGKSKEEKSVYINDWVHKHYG

In the case of `O=[N+]([O-])c1cccc(-c2oc3cc(Br)cc(Br)c3c(=S)c2O)c1` [2n, 5,7-Dibromo-3-hydroxy-2-(3-nitrophenyl)-4H-chromene-4-thione], the inhibitory constant (Ki) stood at 1.98 µM. The mode of inhibition result (Lineweaver–Burk plot, Km increased, Vmax constant) is listed as “competitive”.
